Test results from PubChem BioAssay (NCI).
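Dose response: 5 concentrations. Exposure: 48 h. Format: 96-well plates. Endpoint: linear interpolation; highest concentration if not reached. Here, GI50 denotes the concentration required for 50% inhibition of growth. Definition used: TGI = concentration required for complete inhibition of growth.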

Experiments:
Experiment in all cases: NCI tumour cell line growth inhibition, 48 h
MDA-MB-468 breast = test system: MDA-MB-468 breast
DU-145 prostate = test system: DU-145 prostate
SF-295 CNS = test system: SF-295 CNS
NCI-H23 lung = test system: NCI-H23 lung
HT29 colon = test system: HT29 colon
HS 578T breast = test system: HS 578T breast
CCRF-CEM leukemia = test system: CCRF-CEM leukemia
HOP-92 NSCLC = test system: HOP-92 NSCLC
PC-3 prostate = test system: PC-3 prostate
786-0 renal = test system: 786-0 renal
ACHN renal = test system: ACHN renal
CAKI-1 renal = test system: CAKI-1 renal
HCT-15 colon = test system: HCT-15 colon
HCT-116 colon = test system: HCT-116 colon
UACC-62 melanoma = test system: UACC-62 melanoma
SNB-75 CNS = test system: SNB-75 CNS
BT-549 breast = test system: BT-549 breast
A549 NSCLC = test system: A549 NSCLC
SK-MEL-2 melanoma = test system: SK-MEL-2 melanoma
COLO 205 colon = test system: COLO 205 colon
EKVX NSCLC = test system: EKVX NSCLC
SR leukemia = test system: SR leukemia
OVCAR-8 ovarian = test system: OVCAR-8 ovarian
SK-OV-3 ovarian = test system: SK-OV-3 ovarian
NCI-H522 lung = test system: NCI-H522 lung
SNB-19 CNS = test system: SNB-19 CNS
OVCAR-4 ovarian = test system: OVCAR-4 ovarian
MALME-3M melanoma = test system: MALME-3M melanoma
SF-539 CNS = test system: SF-539 CNS
HCC-2998 colon = test system: HCC-2998 colon
RXF 393 renal = test system: RXF 393 renal
K-562 leukemia = test system: K-562 leukemia
HL-60(TB) leukemia = test system: HL-60(TB) leukemia
SW-620 colon = test system: SW-620 colon
SN12C renal = test system: SN12C renal
SF-268 CNS = test system: SF-268 CNS
LOX IMVI melanoma = test system: LOX IMVI melanoma
RPMI-8226 leukemia = test system: RPMI-8226 leukemia
MDA-MB-435 = test system: MDA-MB-435
OVCAR-3 ovarian = test system: OVCAR-3 ovarian
M14 melanoma = test system: M14 melanoma
T-47D breast = test system: T-47D breast
HOP-62 NSCLC = test system: HOP-62 NSCLC
MOLT-4 leukemia = test system: MOLT-4 leukemia
KM12 colon = test system: KM12 colon
OVCAR-5 ovarian = test system: OVCAR-5 ovarian

Cc1c(Cl)cccc1C(=O)Nc1nc2c(s1)CN(C(=O)c1ccc(C(F)(F)F)cc1)CC2
GI50 (MDA-MB-468 breast): 36.5 nM
TGI (MDA-MB-468 breast): > 35700 nM

COc1ccc(CCN2CC=Cn3c2nc2ccccc2c3=O)cc1
GI50 (MDA-MB-468 breast): 81.6 nM
TGI (MDA-MB-468 breast): 11800 nM

O=C(Nc1cccc(-n2cc(-c3ccncc3)c(-c3ccc(Cl)c(O)c3)n2)c1)Nc1cc(C(F)(F)F)cc(C(F)(F)F)c1
GI50 (MDA-MB-468 breast): 264 nM
TGI (MDA-MB-468 breast): 2650 nM

Cc1cc(NCCCN(C)C)c2ccc3c(ccc4c(NCCCN(C)C)cc(C)nc43)c2n1
GI50 (MDA-MB-468 breast): 153 nM
TGI (MDA-MB-468 breast): 312 nM

Cc1cc(F)ccc1S(=O)(=O)Nc1cc(-c2c(O)ccc3ccccc23)c(O)c2ccccc12
GI50 (MDA-MB-468 breast): 1650 nM
TGI (MDA-MB-468 breast): 3700 nM

Cn1ncnc1[C@H]1c2n[nH]c(=O)c3cc(F)cc(c23)N[C@@H]1c1ccc(F)cc1
GI50 (MDA-MB-468 breast): 1420 nM
TGI (MDA-MB-468 breast): > 100000 nM

O=C(N/N=C/C=C/c1ccc([N+](=O)[O-])o1)c1cc2ccccc2cc1O
GI50 (MDA-MB-468 breast): 1360 nM
TGI (MDA-MB-468 breast): 3220 nM

Cc1ccc(S(=O)(=O)c2c(COC(=O)c3cccc(C)c3)c(-c3ccccc3)nn2C)cc1
GI50 (MDA-MB-468 breast): > 100000 nM
TGI (MDA-MB-468 breast): > 100000 nM

COc1ccc(C/C(C)=C(/c2ccc(OCCN3CCCCC3)cc2)c2ccc(OC(=O)NCc3ccccc3)cc2)cc1
GI50 (MDA-MB-468 breast): 400 nM
TGI (MDA-MB-468 breast): 789 nM

O=C(Nc1ccc(Br)cc1F)c1cc(I)ccc1O
GI50 (MDA-MB-468 breast): 2170 nM
TGI (MDA-MB-468 breast): 6220 nM

[Cl][Sn]([c]1ccccc1)([c]1ccccc1)[c]1ccccc1
GI50 (MDA-MB-468 breast): 137 nM
TGI (MDA-MB-468 breast): 326 nM

Cc1cc(NC(=O)NC(=O)c2ccccc2NC(=O)C(C)N)ccc1Oc1ncc(Br)cn1 (stereo unspecified)
GI50 (MDA-MB-468 breast): < 10 nM
TGI (MDA-MB-468 breast): 28500 nM

CN1CCN(C(=O)Oc2cc3c(c4ccccc24)[C@H](CCl)CN3C(=O)c2cc3cc(OCCCN4CCC4)ccc3[nH]2)[C@@H]2CSSC[C@H]21
GI50 (DU-145 prostate): 3.91 nM
TGI (DU-145 prostate): 2440 nM
GI50 (SF-295 CNS): 2.25 nM
TGI (SF-295 CNS): 6.82 nM
GI50 (NCI-H23 lung): 1.74 nM
TGI (NCI-H23 lung): 5.41 nM
GI50 (HT29 colon): 8.29 nM
TGI (HT29 colon): > 10000 nM
GI50 (HS 578T breast): 27.9 nM
TGI (HS 578T breast): 124 nM
GI50 (MDA-MB-468 breast): 2.55 nM
TGI (MDA-MB-468 breast): 7.92 nM
GI50 (CCRF-CEM leukemia): 7.41 nM
TGI (CCRF-CEM leukemia): 3320 nM
GI50 (HOP-92 NSCLC): 18.2 nM
TGI (HOP-92 NSCLC): 62.9 nM
GI50 (PC-3 prostate): 19.7 nM
TGI (PC-3 prostate): 981 nM
GI50 (786-0 renal): 13.1 nM
TGI (786-0 renal): 40 nM
GI50 (ACHN renal): 2.37 nM
TGI (ACHN renal): 7.23 nM
GI50 (CAKI-1 renal): 2.82 nM
TGI (CAKI-1 renal): > 10000 nM
GI50 (HCT-15 colon): 3.82 nM
TGI (HCT-15 colon): 24.2 nM
GI50 (HCT-116 colon): 6.75 nM
TGI (HCT-116 colon): > 10000 nM
GI50 (UACC-62 melanoma): 2.2 nM
TGI (UACC-62 melanoma): 10.5 nM
GI50 (SNB-75 CNS): 19.7 nM
TGI (SNB-75 CNS): 75 nM
GI50 (BT-549 breast): 21.3 nM
TGI (BT-549 breast): 81.8 nM
GI50 (A549 NSCLC): 1.79 nM
TGI (A549 NSCLC): > 10000 nM
GI50 (SK-MEL-2 melanoma): 18.7 nM
TGI (SK-MEL-2 melanoma): 35.2 nM
GI50 (COLO 205 colon): 14.8 nM
TGI (COLO 205 colon): 33.8 nM
GI50 (EKVX NSCLC): 12.2 nM
TGI (EKVX NSCLC): 40.6 nM
GI50 (SR leukemia): 1.68 nM
TGI (SR leukemia): 39.2 nM
GI50 (OVCAR-8 ovarian): 3.29 nM
TGI (OVCAR-8 ovarian): 129 nM
GI50 (SK-OV-3 ovarian): 15 nM
TGI (SK-OV-3 ovarian): > 10000 nM
GI50 (NCI-H522 lung): 10.9 nM
TGI (NCI-H522 lung): 35.4 nM
GI50 (SNB-19 CNS): 5.79 nM
TGI (SNB-19 CNS): 76.2 nM
GI50 (OVCAR-4 ovarian): 27.5 nM
TGI (OVCAR-4 ovarian): 93.4 nM
GI50 (MALME-3M melanoma): 6.37 nM
TGI (MALME-3M melanoma): 20 nM
GI50 (SF-539 CNS): 5.25 nM
TGI (SF-539 CNS): 21 nM
GI50 (HCC-2998 colon): 3.47 nM
TGI (HCC-2998 colon): 15.2 nM
GI50 (RXF 393 renal): 5.66 nM
TGI (RXF 393 renal): 19 nM
GI50 (K-562 leukemia): 4.4 nM
TGI (K-562 leukemia): > 10000 nM
GI50 (HL-60(TB) leukemia): 9.94 nM
TGI (HL-60(TB) leukemia): 321 nM
GI50 (SW-620 colon): 2.28 nM
TGI (SW-620 colon): 1480 nM
GI50 (SN12C renal): 10.5 nM
TGI (SN12C renal): 98.6 nM
GI50 (SF-268 CNS): 8.99 nM
TGI (SF-268 CNS): 293 nM
GI50 (LOX IMVI melanoma): 2.2 nM
TGI (LOX IMVI melanoma): 15.8 nM
GI50 (RPMI-8226 leukemia): 23.2 nM
TGI (RPMI-8226 leukemia): 1840 nM
GI50 (MDA-MB-435): 12.7 nM
TGI (MDA-MB-435): 38.1 nM
GI50 (OVCAR-3 ovarian): 27.4 nM
TGI (OVCAR-3 ovarian): > 10000 nM
GI50 (M14 melanoma): 5.63 nM
TGI (M14 melanoma): 21.2 nM
GI50 (T-47D breast): 14.8 nM
TGI (T-47D breast): > 10000 nM
GI50 (HOP-62 NSCLC): 5.17 nM
TGI (HOP-62 NSCLC): 60.1 nM
GI50 (MOLT-4 leukemia): 4.45 nM
TGI (MOLT-4 leukemia): 223 nM
GI50 (KM12 colon): 15.7 nM
TGI (KM12 colon): 1520 nM
GI50 (OVCAR-5 ovarian): 6.88 nM
TGI (OVCAR-5 ovarian): 40.8 nM
